Literature values as cited in patent US9915714B2, “MSC-SELMQC method for simultaneous mapping of polyunsaturated fatty acids, lactate and choline in high fat tissues” (University of Pittsburgh—Of the Commonwealth System of …, priority 2007, dated 2018).

Tested on: RIF-1 tumors
Details: following therapeutic intervention, 300 mg/kg; correlates with increases in tumor perfusion and permeability (Gd-DTPA uptake curves)

SMILES: O=P1(N(CCCl)CCCl)NCCCO1 (stereo not shown) [cyclophosphamide]
- lactate levels in RIF-1 tumors: decrease
